Marks after values point to notes of the source that are not given here.
Experiments:
[1] = ASTX727 Phase 1 dose escalation study: plasma decitabine pharmacokinetics (AUC); type: in vivo, human; settings: for AUC(0-t): human, plasma
Description: The ASTX727 Phase 1 study was a dose escalation designed to establish the recommended doses of cedazuridine and decitabine likely to achieve AUC equivalence with standard dose decitabine IV (decitabine 20 mg/m^2 IV). FIG. 1 provides an overview of the study design. In Cycle 1, each patient received a cohort-defined dose of oral decitabine on day −3, a 1-h intravenous infusion of decitabine 20 mg/m^2 on day 1, and cohort-defined doses of oral decitabine plus cedazuridine on days 2-5. In Cycles 2 and beyond, the oral decitabine and cedazuridine were given on days 1-5. The dose of cedazuridine was escalated first and decitabine was escalated once CDA inhibition by cedazuridine approached the maximum effect. Only one drug was escalated per cohort. Fixed doses were given without adjustment for bodyweight or body surface area. Days −3, 1, 2, and 5 for decitabine included a full-day pharmacokinetic analysis. The starting dose was 20 mg for oral decitabine and 40 mg for cedazuridine (a human equivalent dose with approximately 100 times greater safety margin than the no-observed adverse effect level in cynomolgus monkeys). […] Dose-limiting toxicity was defined as a grade 4 hematologic toxicity or grade 3 lasting more than 14 days and unrelated to the underlying disease. […] Dose escalation for patients who previously received a lower dose was allowed at the discretion of the investigator if the patient had tolerated the originally assigned doses.
The pharmacokinetic profile of decitabine was characterized through analysis of plasma treated with EDTA (edetic acid) by validated liquid chromatography-tandem mass spectrometry, with tetrahydrouridine (Santa Cruz Biotechnology, Dallas, TX) for stabilization and with a linear assay range of 0.5-100 ng/mL for decitabine. Serial plasma samples (from before dose administration until 24 h after administration) were collected on days −3, 1, 2, and 5 (also immediately before dose administration on days 3 and 4) during the first cycle. Specifically, pharmacokinetic samples were obtained before dose administration and 0.25 h, 0.5 h, 1.0 h (for IV only 1.083 h), 1.5 h, 2 h, 3 h, 4 h, 6 h, 8 h, and 24 h after the dose.

[2] = ASTX727 Phase 2 randomized cross over dose confirmation: plasma decitabine 5-day AUC, oral vs IV; type: in vivo; settings: human, read-out: Decitabine 5-day AUC0-t, IV Geo. LSM
MDS and CMML patients = test: Phase 2 safety: related adverse events Grade ≥3 in ≥5% of patients; type: in vivo, human; settings: Phase 2, Cycle 1 or 2; IV DEC N = 75, ASTX727 N = 78
Description: The ASTX727 Phase 2 study was a randomized cross over design of decitabine 20 mg/m^2 IV daily (for 5 days) vs. oral decitabine/cedazuridine once daily (for 5 days) in Cycle 1 with patients crossing over to the other drug in Cycle 2 (See FIG. 3). From Cycle 3 onward, all patients continued on oral decitabine/cedazuridine once daily (for 5 days), each cycle every 28 days, until progression.
Changes in DNA methylation after treatment were expressed as relative change (%), calculated as: 100×([methylation on a given post-treatment day]−[baseline methylation]. Adverse event assessments through physical examinations and laboratory monitoring (haematology, metabolic profile, and liver enzymes) were done before treatment on day 1 of each cycle (weekly for haematology in the first two cycles). While on treatment, patients were assessed for adverse events and clinical response, including haematology, metabolic profile, liver enzymes, directed physical examinations, vital signs, transfusion records, and dosing records. Once off treatment, patients were followed up for survival and transformation to acute myeloid leukemia. Dose reduction or delays were permitted at the investigators' discretion to allow for recovery from drug-related myelosuppression.

[3] = Phase 3 randomized cross over study: 5-day decitabine AUC equivalence, oral ASTX727 vs IV decitabine; type: in vivo; settings: human, plasma, 20 mg/m2; Phase 3 primary analysis, paired population N=123; IV decitabine 20 mg/m^2; read-out: Decitabine 5-day AUC0-24, IV DEC Geo. LSM
Excerpt: The Primary Endpoint PK Analysis Set is used to calculate decitabine 5-day cumulative AUC0-t exposures after administration of the solid dosage form. The following assumptions are used: • 1) Steady state is reached on Day 2 of dosing with the solid dosage form; • 2) Based on steady state achievement on Day 2, decitabine AUC0-t from Day 2 and Day 5 is representative of daily AUC0-t on Days 2 through Day 5 in a putative 5-day dosing with the solid dosage form.
Therefore, to calculate total 5-day oral decitabine AUC0-t exposures using PK data from 3 days sequential PK sampling, Day 1 AUC0-t (first solid dosage form dose) is added to (Day 2 AUC0-t+Day 5 AUC0-t)×2. If AUC0-t on Day 2 is not available, it is replaced by AUC0-t on Day 5; the converse is also true.
If AUC0-t on Day 1 is not available, it is replaced by AUC0-t on Day 5; the converse is also true. Note that t=24 hrs, so AUC0-t is AUC0-24.
Phase 3 was a randomized cross over design where MDS and CMML patients eligible to receive decitabine were randomized to Sequence A where they received ASTX727 in Cycle 1 then IV decitabine in Cycle 2, or Sequence B with the reverse order. All patients received ASTX727 from Cycle 3 onwards to assess long term efficacy and safety. 118 evaluable patients were needed to show AUC equivalence between oral and IV administrations. […]

- 5-days Total AUC0-t, IV (N = 41), geometric mean ([1]; IV decitabine 20 mg/m^2, total IV population of all cohorts (N = 41)): 821^d h · ng/ml
- AUC(0-t) ([1]; iv, 20 mg/m2, Cohort 1, N=5 (extreme outlier excluded), IV decitabine 20 mg/m^2, day 1, read-out: AUC0-t by day, IV D1, Geometric Mean (gCV %)): 138 ng·h/mL
- AUC(0-t) ([1]; iv, 20 mg/m2, Cohort 2, N=6, IV decitabine 20 mg/m^2, day 1, read-out: AUC0-t by day, IV D1, Geometric Mean (gCV %)): 170 ng·h/mL
- AUC(0-t) ([1]; iv, 20 mg/m2, Cohort 3, N=6, IV decitabine 20 mg/m^2, day 1, read-out: AUC0-t by day, IV D1, Geometric Mean (gCV %)): 192 ng·h/mL
- AUC(0-t) ([1]; iv, 20 mg/m2, Cohort 4, N=6, IV decitabine 20 mg/m^2, day 1, read-out: AUC0-t by day, IV D1, Geometric Mean (gCV %)): 153 ng·h/mL
- AUC(0-t) ([1]; iv, 20 mg/m2, Cohort 5, IV decitabine 20 mg/m^2, day 1, IV data from 18 patients (one extreme outlier excluded), read-out: AUC0-t by day, IV D1, Geometric Mean (gCV %)): 166 ng·h/mL
- AUC(0-t) ([1]; iv, 20 mg/m^2, Cohort 1, N=6, IV decitabine 20 mg/m^2 1-h infusion, day 1, read-out: AUC0-t by day, IV D1, Geometric Mean (gCV %)): 159 ng·h/mL
- AUC(0-t) ([1]; po, 20 mg, Cohort 1, N=5 (extreme outlier excluded), oral DEC 20 mg alone, day −3, read-out: AUC0-t by day, D −3 (DEC alone), Geometric Mean (gCV %)): 7.9 ng·h/mL
- AUC(0-t) ([1]; po, 20 mg, Cohort 1, N=6, oral DEC 20 mg alone, day −3, plasma decitabine, read-out: AUC0-t by day, D −3 (DEC alone), Geometric Mean (gCV %)): 10.7 ng·h/mL
- AUC(0-t) ([1]; po, 20 mg, Cohort 2, N=6, oral DEC 20 mg alone, day −3, read-out: AUC0-t by day, D −3 (DEC alone), Geometric Mean (gCV %)): 7.49 ng·h/mL
- AUC(0-t) ([1]; po, 20 mg, Cohort 3, N=6, oral DEC 20 mg alone, day −3, read-out: AUC0-t by day, D −3 (DEC alone), Geometric Mean (gCV %)): 7.9 ng·h/mL
- AUC(0-t) ([1]; po, 30 mg, Cohort 5, N=19, oral DEC 30 mg alone, day −3, read-out: AUC0-t by day, D −3 (DEC alone), Geometric Mean (gCV %)): 15.3 ng·h/mL
- AUC(0-t) ([1]; po, 40 mg, Cohort 4, N=6, oral DEC 40 mg alone, day −3, read-out: AUC0-t by day, D −3 (DEC alone), Geometric Mean (gCV %)): 29.8 ng·h/mL
- AUC(0-t) ([2]; 20 mg/m^2, Phase 2 FDC tablet stage, N=24, 20 mg/m^2 IV infusion (1 h) of decitabine): 745 ng·h/mL
- AUC(0-t) ([2]; 20 mg/m^2, Phase 2 capsule stage, N=40, 20 mg/m^2 IV infusion (1 h) of decitabine): 803 ng·h/mL
- AUC(0-t) [3]: 865 ng·h/mL
SMILES: Nc1ncn([C@H]2C[C@H](O)[C@@H](CO)O2)c(=O)n1 [IV DEC, 5-aza-2′-deoxycytidine]
- Anemia, related AE Grade ≥3 (MDS and CMML patients): 4 (5.3%) n (%)
- Any Grade ≥3 Related AEs (MDS and CMML patients): 24 (32%) n (%)
- Febrile Neutropenia, related AE Grade ≥3 (MDS and CMML patients): 4 (5.3%) n (%)
- Leukopenia, related AE Grade ≥3 (MDS and CMML patients): 6 (8.0%) n (%)
- Neutropenia, related AE Grade ≥3 (MDS and CMML patients): 16 (21.3%) n (%)
- Thrombocytopenia, related AE Grade ≥3 (MDS and CMML patients): 11 (14.7%) n (%)

Source: US11963971B2, “Combination decitabine and cedazuridine solid oral dosage forms” (Otsuka Pharmaceutical Co., Ltd., priority 2020, dated 2024)
